Assay results from PubChem BioAssay (NCI).
Where “and” joins values, the source holds several entries; their conditions need not be identical. Equal values may be shown once.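 Results reflect a 48-hour exposure of cells in 96-well plates to compound at five concentrations. GI50 is the concentration that inhibits growth by half. At the TGI there is no net growth.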

Key:
Assay in all cases: DTP human tumour cell line panel, 48 h
K-562 leukemia = test system: K-562 leukemia
786-0 renal = test system: 786-0 renal
SF-539 CNS = test system: SF-539 CNS
KM12 colon = test system: KM12 colon
HCT-15 colon = test system: HCT-15 colon
BT-549 breast = test system: BT-549 breast
M14 melanoma = test system: M14 melanoma
SNB-75 CNS = test system: SNB-75 CNS

| SMILES | GI50 (K-562 leukemia) | TGI (K-562 leukemia) | GI50 (786-0 renal) | TGI (786-0 renal) | GI50 (SF-539 CNS) | TGI (SF-539 CNS) | GI50 (KM12 colon) | TGI (KM12 colon) | GI50 (HCT-15 colon) | TGI (HCT-15 colon) | GI50 (BT-549 breast) [µM] | TGI (BT-549 breast) [µM] | GI50 (M14 melanoma) [µM] | TGI (M14 melanoma) | GI50 (SNB-75 CNS) | TGI (SNB-75 CNS) |
| --- | --- | --- | --- | --- | --- | --- | --- | --- | --- | --- | --- | --- | --- | --- | --- | --- |
| COc1ccc(Nc2c3ccccc3nc3[nH]c4ccccc4c23)cc1 | 7.17 µM | > 50 µM | 11.4 µM | 49.2 µM | 6.5 µM | 20 µM | > 50 µM | > 50 µM | 8.33 µM | > 50 µM | 13.7 | > 50 |  |  |  |  |
| CCN(CC)CCSCCCNc1c2ccc(Cl)cc2nc2ccc(OC)cc12 |  |  | 1.12 µM | 2.43 µM | 1.4 µM | 2.97 µM | 0.802 µM | 5.03 µM | 0.433 µM | 2.36 µM | 1.77 | 3.5 | 1.71 | 3.46 µM | 1.28 µM | 2.72 µM |
| Cn1c(=O)c(Oc2ccc(F)cc2F)cc2cnc(NCCS(C)(=O)=O)nc21 | > 25 µM | > 25 µM | > 25 µM | > 25 µM | > 25 µM | > 25 µM | > 25 µM | > 25 µM | > 25 µM | > 25 µM | > 25 | > 25 | > 25 | > 25 µM | > 25 µM | > 25 µM |
| CC1=C(/C=C/C(C)=C/C=C/C(C)=C/CO)C(C)(C)CCC1 |  | > 100 µM |  | 34.2 µM |  | 34.3 µM |  | > 100 µM |  | > 100 µM |  |  |  | 35.7 µM |  |  |
| O=C1OC(c2ccccc2)=N/C1=C\c1cccc(F)c1 |  | > 100 µM |  | > 100 µM |  |  |  | > 100 µM |  | > 100 µM |  | > 100 |  | > 100 µM |  | > 100 µM |
| COc1ccc(Nc2cc(C)nc(N3CCN(c4ccnc5cc(Cl)ccc45)CC3)n2)cc1 | 2.34 µM | > 100 µM | 2.61 µM | > 100 µM |  |  | 1.64 µM | 31.6 µM | 2.06 µM | > 100 µM | 2.22 | 8.06 | 1.75 | 5.32 µM | 2.47 µM | 13.4 µM |
| COc1cc(Cl)cc(-c2nn(-c3cccc(NC(=O)Nc4ccc(Cl)c(C(F)(F)F)c4)c3)cc2-c2ccncc2)c1 | 0.537 µM | 10.1 µM | 1.59 µM | 4.27 µM | 1.5 µM | 3.35 µM | 0.555 µM | 4.44 µM | 0.493 µM | 2.4 µM | 2.38 | 6.66 | 1.33 | 3.47 µM | 1.77 µM | 11.1 µM |
| Cn1cnc([N+](=O)[O-])c1Sc1ncn[nH]1 | 32.3 µM | > 100 µM | > 100 µM | > 100 µM | > 100 µM | > 100 µM | > 100 µM | > 100 µM | 70.1 µM | > 100 µM | > 100 | > 100 | > 100 | > 100 µM | > 100 µM | > 100 µM |
| O=[N+]([O-])c1ccc(S(=O)(=O)Cc2ccccc2)c2nonc12 |  | 76.7 µM |  | 37.5 µM |  | 35.5 µM |  | 38.7 µM |  | 51.7 µM |  | 33.1 |  | 31.2 µM |  | 98.5 µM |
| O=C(Nc1ccc(I)cc1F)c1cc(Cl)ccc1O | 0.429 µM | > 100 µM | 2.19 µM | 7.18 µM | 0.409 µM | 3.89 µM | 2.31 µM | 6.01 µM | 0.554 µM | 10.7 µM | 0.372 | 1.73 | 0.407 | 4.72 µM | 0.308 µM | 2.36 µM |
| OCCN1CCN(CC/C=C2\c3ccccc3Sc3ccc(Cl)cc32)CC1 | 1.52 µM and 1.77 µM | 2.94 µM and 3.68 µM | 1.82 µM and 3.06 µM | 3.65 µM and 8.58 µM | 1.61 µM and 2.05 µM | 3.37 µM and 4.37 µM | 2.73 µM and 2.81 µM | 6.02 µM and 7.34 µM | 1.84 µM and 2 µM | 3.64 µM and 4.29 µM | 7.89 | 22.4 | 1.78 | 4.27 µM and 3.22 µM | 1.41 µM and 2.7 µM | 5.07 µM and 7.95 µM |
| Cc1nc(Nc2nc3ccccc3o2)nc(-c2cccc([N+](=O)[O-])c2)c1C(=O)Nc1ccc(F)c(Cl)c1 | 1.84 µM | > 100 µM | 3.18 µM | > 100 µM | 3.52 µM | > 100 µM | 1.96 µM | 12.4 µM | 2.29 µM | > 100 µM | 3.08 | 68.4 | 3.26 | > 100 µM | 2.27 µM | 9.62 µM |
| CSc1cccc(NC(=O)OC2CCCCCCCCCCC2)c1 |  | 93.7 µM |  | 53.9 µM |  | 63.7 µM |  | 31.5 µM |  | > 100 µM |  | > 100 |  | 59.5 µM |  | > 100 µM |
| Cc1c(Sc2ccccc2)[n+](=O)c2cc(Cl)c(Cl)cc2n1[O-] | 2.22 µM | 11.3 µM | 22 µM | 43.4 µM | 89.9 µM | > 100 µM | > 100 µM | > 100 µM | 53.7 µM | > 100 µM | 27.8 | 58.9 | 46.8 | > 100 µM | > 100 µM | > 100 µM |
| COc1ccc(-c2nn(-c3cccc(NC(=O)c4ccc(N5CCOCC5)c(C(F)(F)F)c4)c3)cc2-c2ccncc2)cc1Cl | 1.89 µM | > 50 µM | 1.51 µM | 27.6 µM | 2.66 µM | 36.3 µM | 2.11 µM | > 50 µM | 2.99 µM | > 50 µM | 4.14 | > 50 | 4.54 | 38.1 µM | 0.797 µM | 4.95 µM |
| CCn1c2ccccc2c2cc(C(O)c3cccc4ncccc34)ccc21 (stereo not drawn) | 0.0389 µM | 10.9 µM | 0.0559 µM | 7.29 µM | 0.0346 µM | 0.224 µM | 0.0421 µM | 6.56 µM | 0.0409 µM | 12.1 µM | 0.0702 | 15.6 | 0.0468 | > 100 µM | 0.0254 µM | 34.1 µM |
